Results on one compound are retold here after patent US20220110886A1, “OPTIMIZATION OF SCENT OR FLAVOR COMPOSITIONS” (Aromyx Corporation, priority 2019, published 2022).

The conditions of assay [1]: adults relative to children; cited from earlier work.
The target in another assay is T1, OR8K3 (Homo sapiens, UniProt Q8NH51).
T1 construct: expressed in transfected cells; host or cells: HEK293T
T1 sequence (Q8NH51 1-312): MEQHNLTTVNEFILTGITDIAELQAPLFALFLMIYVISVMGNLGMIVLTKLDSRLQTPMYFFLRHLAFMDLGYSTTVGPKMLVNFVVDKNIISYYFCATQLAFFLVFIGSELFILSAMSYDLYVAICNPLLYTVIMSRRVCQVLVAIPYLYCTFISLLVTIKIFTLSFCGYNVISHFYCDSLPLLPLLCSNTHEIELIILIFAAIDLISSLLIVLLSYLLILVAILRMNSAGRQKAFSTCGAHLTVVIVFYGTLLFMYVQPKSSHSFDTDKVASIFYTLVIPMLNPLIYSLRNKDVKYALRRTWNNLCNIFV
Briefly: Olfactory receptor cAMP signaling in transfected HEK293T cells exposed to menthol. Conditions: 8K3, menthol 1 nM to 1 mM, cAMP production. It is filed as cell-based. As for the experimental part: (§1) When creating an age-related flavor profile for menthol, identification of the olfactory receptors that respond to menthol may be accomplished by transfecting human olfactory receptor cDNA sequences in HEK293T co-expressing accessory factors for odorant receptor expression (see, e.g., Saito, H., et al., Cell 119:679-691 (2004)). Transfected cells may then be exposed to serial dilutions of menthol from 1 nM to 1 mM in growth medium, and receptor signaling may be measured by cAMP production in the cell using a commercial assay.
(§2) Next, positive olfactory receptors may be identified by increased signaling when exposed to at least one menthol concentration compared to control cells that have not been transfected. In each case, an EC50 is defined for the receptor versus menthol. Olfactory receptors OR1G1, 8K3, 2W1, 2J2, 11H7P and 51E1 have been identified by this method as menthol-sensitive olfactory receptors.

The target of the next assay is T2, OR2J2 (Homo sapiens, UniProt O76002).
T2 construct: expressed in transfected cells; host or cells: HEK293T
T2 sequence (O76002 1-312): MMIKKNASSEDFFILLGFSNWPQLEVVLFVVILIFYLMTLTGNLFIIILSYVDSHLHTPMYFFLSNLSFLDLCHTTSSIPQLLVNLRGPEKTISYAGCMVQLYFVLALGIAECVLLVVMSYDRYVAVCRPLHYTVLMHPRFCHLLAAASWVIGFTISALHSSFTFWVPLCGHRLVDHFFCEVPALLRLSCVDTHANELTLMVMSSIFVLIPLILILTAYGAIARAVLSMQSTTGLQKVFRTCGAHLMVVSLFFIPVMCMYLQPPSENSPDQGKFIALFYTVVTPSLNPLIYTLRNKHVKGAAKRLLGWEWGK
The assay is described as above. It is filed as cell-based. As to conditions: 2J2, menthol 1 nM to 1 mM, cAMP production. The protocol:
as §1, §2
(cAMP levels reflect the balance of adenylyl cyclase and phosphodiesterase activity.)

The target in the next assay is T3, OR1G1 (Homo sapiens, UniProt P47890).
T3 construct: expressed in transfected cells; host or cells: HEK293T
T3 sequence (P47890 1-313): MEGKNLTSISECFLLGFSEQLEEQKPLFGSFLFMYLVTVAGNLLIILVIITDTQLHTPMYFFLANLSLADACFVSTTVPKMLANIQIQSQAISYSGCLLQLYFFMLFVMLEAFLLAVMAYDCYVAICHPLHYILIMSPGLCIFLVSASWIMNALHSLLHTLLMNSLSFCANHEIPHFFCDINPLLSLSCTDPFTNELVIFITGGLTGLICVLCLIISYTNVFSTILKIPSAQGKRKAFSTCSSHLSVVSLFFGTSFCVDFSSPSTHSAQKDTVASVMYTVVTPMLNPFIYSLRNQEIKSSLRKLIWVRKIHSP
The description is as above. The assay is classed as cell-based. Conditions: menthol 1 nM to 1 mM, cAMP production. As for the experimental part:
as §1, §2

In another assay the target is T4, OR11H7P (Homo sapiens, UniProt Q8NGC8).
T4 construct: expressed in transfected cells; host or cells: HEK293T
T4 sequence (Q8NGC8 1-314): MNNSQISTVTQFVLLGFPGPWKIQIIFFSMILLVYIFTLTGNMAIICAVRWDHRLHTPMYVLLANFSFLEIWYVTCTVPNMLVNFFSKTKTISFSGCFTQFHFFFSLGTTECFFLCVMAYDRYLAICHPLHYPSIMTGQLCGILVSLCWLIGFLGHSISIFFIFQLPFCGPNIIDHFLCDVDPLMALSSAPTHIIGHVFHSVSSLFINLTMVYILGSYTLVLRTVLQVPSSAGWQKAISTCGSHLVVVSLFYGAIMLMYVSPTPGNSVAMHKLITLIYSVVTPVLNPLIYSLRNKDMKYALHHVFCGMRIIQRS
The description is as above. It is filed as cell-based. As to conditions: 11H7P, menthol 1 nM to 1 mM, cAMP production. The protocol: as §1, §2

Another assay concerns the target T5, OR2W1 (Homo sapiens, UniProt Q9Y3N9).
T5 construct: expressed in transfected cells; host or cells: HEK293T
T5 sequence (Q9Y3N9 1-320): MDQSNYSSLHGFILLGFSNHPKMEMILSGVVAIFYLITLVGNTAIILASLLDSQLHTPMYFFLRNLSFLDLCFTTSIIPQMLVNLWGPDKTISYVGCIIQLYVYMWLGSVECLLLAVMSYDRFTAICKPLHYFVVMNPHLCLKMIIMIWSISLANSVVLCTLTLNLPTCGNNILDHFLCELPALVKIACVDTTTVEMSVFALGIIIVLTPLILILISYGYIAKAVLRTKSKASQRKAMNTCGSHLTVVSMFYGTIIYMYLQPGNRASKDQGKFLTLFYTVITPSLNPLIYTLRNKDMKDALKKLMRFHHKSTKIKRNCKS
The description is as above. As to conditions: 2W1, menthol 1 nM to 1 mM, cAMP production. The assay is classed as cell-based. As for the experimental part: as §1, §2

The next assay addresses T6, OR51E1 (Homo sapiens, UniProt Q8TCB6).
T6 construct: expressed in transfected cells; host or cells: HEK293T
T6 sequence (Q8TCB6 1-318): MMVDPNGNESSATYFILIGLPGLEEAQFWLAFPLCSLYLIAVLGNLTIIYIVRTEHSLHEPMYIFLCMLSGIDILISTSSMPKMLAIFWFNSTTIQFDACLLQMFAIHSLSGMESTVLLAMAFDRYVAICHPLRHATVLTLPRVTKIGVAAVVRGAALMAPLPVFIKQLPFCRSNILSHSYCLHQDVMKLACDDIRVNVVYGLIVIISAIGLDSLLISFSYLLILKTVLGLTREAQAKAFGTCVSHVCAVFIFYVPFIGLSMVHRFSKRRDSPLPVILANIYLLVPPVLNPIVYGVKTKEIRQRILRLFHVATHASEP
Described as above. The assay is classed as cell-based. As to conditions: 51E1, menthol 1 nM to 1 mM, cAMP production. As for the experimental part: as §1, §2

Consider `CC1CCC(C(C)C)C(O)C1` (stereo not shown) [menthol], for which, in assay [1], the “menthol concentration adults require to perceive the same level of intensity as children” value was “approximately two”. Moreover, the “receptor identified as menthol-sensitive (increased signaling vs non-transfected control cells)” value on OR8K3, on OR2J2, at OR1G1, at OR11H7P, on OR2W1 and on OR51E1 was “menthol-sensitive” in each case.
